{"source": "patent US8735152B2", "about": "“Methods for inducing cell death in pluripotent stem cells and differentiated cells other than cardiac myocytes” (Daiichi Sankyo Company, Limited, priority 2009, dated 2014)", "key": {"[1]": {"test": "Saccharide concentration and osmotic pressure of hypertonic solutions (measured values)", "assay_type": "physicochemical", "procedure": "When the hypertonic solution having an osmotic pressure of 370 mOsm/kg or higher is prepared by adding a saccharide to the culture medium, the method of the present invention is characterized in that the hypertonic solution contains the saccharide in 0.1-1 M (mol/L), preferably 0.1-0.6 M (mol/L). The relation between the concentration of saccharide (mol/L) and the osmotic pressure (mOsm/kg) can be approximated by a substantially straight line; a hypertonic solution containing 0.1 M saccharide corresponds to one having an osmotic pressure of approximately 370 mOsm/kg and a hypertonic solution containing 1 M saccharide corresponds to one having an osmotic pressure of approximately 1300-1600 mOsm/kg.\nHypertonic solutions were prepared using various saccharides and the relation between the saccharide concentration and the osmotic pressure is shown in the following table for typical saccharides."}, "[2]": {"test_system": "human embryonic stem cells", "test": "Cell death inducing effect on human embryonic stem cells (TMRM FACS, 5-day adherent culture)", "assay_type": "cell-based", "settings": "0.45 M, 2 hours", "procedure": "The human embryonic stem cells were obtained from Stem Cell Research Center, Institute for Frontier Medical Sciences, Kyoto University (ES cell center sponsored by the National Bio-Resource Project) (Suemori, H et al., Biochem. Biophys. Res. Commun., Vol. 345, 2006, pp. 926-932). The cells were cultured basically in accordance with the method described in this document. To be more specific, the human embryonic stem cells were cultured to maintain their undifferentiated state using mouse embryonic fibroblasts (MEF) that had been inactivated for growth by treatment with mitomycin C. The culture medium of F12/DMEM (1:1) (SIGMA; Product No. D6421), supplemented with 20% KO-SERUM (GIBCO), 1.6 mM L-glutamine, 0.1 mM non-essential amino acids (MEM), 0.1 mM β-mercaptoethanol (2-ME; Sigma), 100 IU/ml penicillin, 100 μg/ml streptomycin sulfate, and recombinant human basic fibroblast growth factor (bFGF; Reprotech) was used. Upon passaging, the cells were treated with 0.1% type III collagenase (Wortington) at 37° C. for 10 minutes to separate embryonic stem cell colonies. After passaging, the cells were dispersed with each other using TE (0.25% trypsin (GIBCO) and 1 mM EDTA) and in accordance with a published document (Watanabe, K. et al., Nat. Biotechnol., 2007, 25: 681-686, Epub 2007 May 27), 10 μM of a ROCK inhibitor (Y27632) was added to suppress cell death. At the same time, the mitochondria in the live cells were stained with 50 nM TMRM. Part of the stained cells were treated with an α-MEM culture medium containing 0.45 M mannitol (approximately equivalent to 720 mOsm/kg) for 2, 3 or 4 hours and three samples were prepared from these cells; the rest of the stained cells were treated with a mannitol-free α-MEM culture medium for 2 hours and a sample was prepared from these cells as a control. In the control, cells were aggregated with each other to make masses, so before FACS analysis, the treated groups and the control were given another treatment with trypsin and EDTA to disperse the cells. The cells treated with mannitol for 2, 3 or 4 hours and the control cells were analyzed by FACS for the level of mitochondrial membrane potential on the basis of the fluorescent intensity of TMRM to check the state of survival of the stem cells; the results are shown in FIG. 7. […] In addition, the TMRM-stained cells were photographed, both for the case of 2-h treatment with mannitol and for the control (FIG. 8)). […] Changes in the mitochondrial membrane potential were observed using the experimental technique of Example 5, provided that the human embryonic stem cells were treated not with mannitol, but with 0.45 M of various other saccharides (sugar alcohols: sorbitol and xylitol; sugars: sucrose and glucose; betaines: trimethylglycine) (approximately equivalent to 750-780 mOsm/kg) for 2 hours."}, "[3]": {"test_system": "human embryonic stem cell-derived embryoid bodies", "test": "Cell death inducing effect on residual stem cells in human embryonic stem cell-derived embryoid bodies and enrichment of cardiomyocytes", "assay_type": "cell-based", "settings": "0.45 M or 0.6 M", "procedure": "After passaging, human embryonic stem cells were subjected to suspension culture in a culture medium [α-MEM (minimum essential medium) (SIGMA), supplemented with 10% FBS (EQUITEC BIO), 100 units/ml penicillin, and 50 μg/ml streptomycin (GIBCO)] to induce formation of embryoid bodies. At 14-18 days after the start of differentiation (the start of suspension culture), autonomously pulsating cells started to differentiate, which was confirmed in a separate step that they were cardiomyocytes.\nThe embryoid bodies still maintained an autonomously pulsating ability after the passage of 3 months from the start of differentiation. They were partially treated with 0.1% collagenase (Wortington) and 0.1% trypsin (DIFCO) to be dispersed as fine cell masses. The cell masses were divided into two groups; one group was treated with 0.45 M mannitol (approximately equivalent to 720 mOsm/kg) for 2 hours, and the other group (control) was not treated with mannitol but treated with the same amount of a solution having the physiological osmotic pressure, Ads buffer (116.4 mM NaCl, 5.4 mM KCl, 5.6 mM dextrose, 10.9 mM NaH2PO4, 405.7 μM MgSO4, 20 mM Hepes, pH 7.3) for 2 hours. After the treatment, both cell groups were subjected to adherent culture for 3 days in a DMEM solution supplemented with 10% fetal calf serum.\nThe mannitol-treated cells and the control cells were analyzed in accordance with the experimental procedure of Example 1 using a mouse anti-Oct-3/4 monoclonal antibody (No. 084720 of BD Transduction Laboratories) and a goat anti-Nkx 2.5 antibody (No. N-19 of Santacruz) as primary antibodies, for the expression of the Oct-3/4 protein which was both a marker of embryonic stem cells and an intranuclear transcription factor, and for the expression of the Nkx 2.5 protein which was both a cardiomyocyte marker and an intranuclear transcription factor, respectively. The results for the control group, one of the two divided samples, are shown in FIG. 10 and the results for the test group subjected to 2-hr treatment with mannitol are shown in FIG. 11. The upper panels of FIG. 10 show the results of cardiomyocytes and the lower panels show the results of embryonic stem cells.\nThe embryoid bodies still maintained an autonomously pulsating ability after the passage of 3 months from the start of differentiation. They were partially treated with 0.1% collagenase (Wortington) and 0.1% trypsin (DIFCO) to be dispersed as fine cell masses. The cell masses were divided into two groups; one group was treated with saccharides (sugar alcohols: sorbitol, xylitol, and glycerol; sugars: sucrose and glucose; betaines: trimethylglycine) for 12 hours in an amount of 0.45 M (approximately equivalent to 700-780 mOsm/kg) or 0.6 M (approximately equivalent to 850-1000 mOsm/kg), and the other group (control) was not treated with those saccharides but treated with the same amount of a solution having the physiological osmotic pressure, Ads buffer (116.4 mM NaCl, 5.4 mM KCl, 5.6 mM dextrose, 10.9 mM NaH2PO4, 405.7 μM MgSO4, 20 mM Hepes, pH 7.3) for 2 hours. After the treatment, both cell groups were cultured for 12 hours in a DMEM solution supplemented with 10% fetal calf serum.\nSamples of differentiated cells derived from human embryonic stem cells, as treated with 0.45 M glycerol (approximately equivalent to 710 mOsm/kg) or 0.6 M glycerol (approximately equivalent to 870 mOsm/kg), were examined for their morphology under the culture conditions. […] The cell death inducing effect was noticeable when the cells were exposed to glycerol for 10 hours and longer (FIG. 14)."}, "[4]": {"settings": "saccharide concentration 0.45 M in culture medium"}, "[5]": {"settings": "saccharide concentration 0.6 M in culture medium"}, "[6]": {"settings": "saccharide concentration 0.9 M in culture medium"}}, "data": [{"smiles": "OC[C@H]1O[C@@](CO)(O[C@H]2O[C@H](CO)[C@@H](O)[C@H](O)[C@H]2O)[C@@H](O)[C@@H]1O", "note": "[sucrose]", "values": [{"measurement": "Osmotic pressure", "setting": "[1]; [4]", "value": 779, "unit": "mOsm/kg"}, {"measurement": "Osmotic pressure", "setting": "[1]; [5]", "value": 988, "unit": "mOsm/kg"}, {"measurement": "Osmotic pressure", "setting": "[1]; [6]", "value": 1496, "unit": "mOsm/kg"}, {"measurement": "Mitochondrial membrane potential (TMRM fluorescence, FACS)", "setting": "[2]", "value": "all of the cells treated with the above-mentioned saccharides for 2 hours had lost membrane potential"}]}, {"smiles": "OCC(O)CO", "note": "[glycerol]", "values": [{"measurement": "Osmotic pressure", "setting": "[1]; [4]", "value": "~710", "unit": "mOsm/kg"}, {"measurement": "Osmotic pressure", "setting": "[1]; saccharide concentration 0.45 M in culture medium, listed as Glycerol", "value": 706, "unit": "mOsm/kg"}, {"measurement": "Osmotic pressure", "setting": "[1]; [5]", "value": "~870", "unit": "mOsm/kg"}, {"measurement": "Osmotic pressure", "setting": "[1]; saccharide concentration 0.6 M in culture medium, listed as Glycerol", "value": 869, "unit": "mOsm/kg"}, {"measurement": "Osmotic pressure", "setting": "[1]; [6]", "value": 1232, "unit": "mOsm/kg"}, {"measurement": "Exposure time at which the cell death inducing effect was noticeable", "setting": "[3]", "value": "≥ 10", "unit": "h"}, {"measurement": "State of differentiated cells other than cardiomyocytes (morphology)", "setting": "[3]", "value": "almost all of the differentiated cells other than cardiomyocytes had been dead"}]}, {"smiles": "C[N+](C)(C)CC(=O)[O-]", "note": "[trimethylglycine]", "values": [{"measurement": "Osmotic pressure", "setting": "[1]; [4]", "value": 763, "unit": "mOsm/kg"}, {"measurement": "Osmotic pressure", "setting": "[1]; [5]", "value": 965, "unit": "mOsm/kg"}, {"measurement": "Osmotic pressure", "setting": "[1]; [6]", "value": 1421, "unit": "mOsm/kg"}, {"measurement": "Mitochondrial membrane potential (TMRM fluorescence, FACS)", "setting": "[2]", "value": "all of the cells treated with the above-mentioned saccharides for 2 hours had lost membrane potential"}]}, {"smiles": "OC[C@@H](O)[C@@H](O)[C@H](O)[C@@H](O)CO", "note": "[sorbitol]", "values": [{"measurement": "Osmotic pressure", "setting": "[1]; [4]", "value": 748, "unit": "mOsm/kg"}, {"measurement": "Osmotic pressure", "setting": "[1]; [5]", "value": 922, "unit": "mOsm/kg"}, {"measurement": "Osmotic pressure", "setting": "[1]; [6]", "value": 1289, "unit": "mOsm/kg"}, {"measurement": "Mitochondrial membrane potential (TMRM fluorescence, FACS)", "setting": "[2]", "value": "all of the cells treated with the above-mentioned saccharides for 2 hours had lost membrane potential"}]}, {"smiles": "OC[C@@H](O)[C@H](O)[C@@H](O)CO", "note": "[xylitol]", "values": [{"measurement": "Osmotic pressure", "setting": "[1]; [4]", "value": 779, "unit": "mOsm/kg"}, {"measurement": "Osmotic pressure", "setting": "[1]; [5]", "value": 940, "unit": "mOsm/kg"}, {"measurement": "Osmotic pressure", "setting": "[1]; [6]", "value": 1230, "unit": "mOsm/kg"}, {"measurement": "Mitochondrial membrane potential (TMRM fluorescence, FACS)", "setting": "[2]", "value": "all of the cells treated with the above-mentioned saccharides for 2 hours had lost membrane potential"}]}]}
